According to patent US20130065227A1, “METHODS OF INCREASING MACROPINOCYTOSIS IN CANCER CELLS” (priority 2010, published 2013):
Residues, ends and D or L forms follow the SMILES beside them. *: point of attachment. Cbz = O=C(OCc1ccccc1)*; CH2F = FC*

Key:
[1] = tested on: U937 leukemia cells; experiment: Cell death mechanism (DNA laddering, immunoblotting, electron microscopy); format: cell-based
Procedure: (A) Trypan blue staining of U937 leukemia cells showing percentage of dead cells (trypan blue positive) over time. (B) U937 cells were untreated (Un) or treated with 1 μM AS1411 (1411) or control oligonucleotide (Ctrl) for 72 h. DNA was extracted, electrophoresed on an agarose gel and stained with ethidium bromide to probe DNA laddering. As a positive control, […] were treated with UV irradiation to induce apoptosis as previously described. […] (D) U937 cells treated as described for panel B, followed by protein extraction and immunoblotting (IB) to detect PARP cleavage and Caspase-3 activation. (E) DU145 prostate cancer cells were incubated with 10 μM of AS1411 for 24 h, or irradiated with UV (300 J/m^2 with UV Stratalinker 2400, Strategene), then cultured in fresh medium for 6 h. Assessment of cell death was carried out by flow cytometry to detect Annexin V-FITC binding and PI staining.

[2] = tested on: DU145 cells; format: cell-based
Procedure: DU145 cells were incubated for 4 days in the presence of 10 μM AS1411 with 3-MA at the concentration indicated, and cell number was assessed by MTT assay.
It also appears unlikely that AS1411-induced cell death is due to autophagy. […] Further evidence that supports the idea that AS1411 can induce methuosis comes from the similarity between the appearance of cells treated with AS1411 and published images of glioblastoma cells undergoing Ras-induced methuosis.

[3] = tested on: DU145 cells; experiment: Uptake of fluorophore-labeled oligonucleotides by flow cytometry; format: cell-based; details: 5 μM cytochalasin D for 30 min, then 10 μM FL-AS1411 2 h
Procedure: (§1) FIG. 1 are graphs showing that AS1411 cell internalization is an active process. Cells were plated 18 h before uptake analysis. After incubation as described, cells were washed with ice-cold PBS, incubated with 1 μg/ml 7-AAD, harvested and resuspended in 1% paraformaldehyde containing 2 μg/ml actinomycin D, then analyzed by flow cytometry. (Panel A) DU145 cells were incubated at 37° C. with fresh complete DMEM medium containing 10 μM FL-AS1411 (black line) or 10 μM FL-CRO (gray line) for the time indicated. (Panel B) DU145 cells were incubated for 2 h at 37° C. in complete or serum-free DMEM medium containing 10 μM FL-AS1411, or 10 μM FL-CRO, or no oligonucleotide. (Panel C) Various cell lines were incubated with 10 μM FL-AS1411 (black outline histogram), 10 μM FL-CRO (gray outline histogram) or without DNA (solid gray histogram) at 37° C. or 4° C. for 2 h. All experiments were repeated at least three times. Data are mean of three independent samples; bars, SE; *(p<0.05).
(§2) FIG. 2 are graphs showing that AS1411 is internalized by different endocytic mechanisms in DU145 cancer cells and in non-malignant Hs27 cells. DU145 or Hs27 cells were plated 18 h before uptake analysis. Cells were pre-treated as described with inhibitor (gray histogram) or the corresponding vehicle control (black histogram) before addition of 10 μM FL-AS1411 and incubation at 37° C. for 2 h. After incubation, cells were harvested and analyzed by flow cytometry. Pre-treatment conditions were at 37° C. with: (Panel A) 5 μM Cytochalasin D for 30 min; (Panel B) 80 μM Dynasore for 30 min; or (Panel C) 3 mM amiloride for 1 h. All experiments were repeated at least three times and representative data are shown. Solid gray histograms represent background autofluorescence of unstained cells.
DU145 cells were transfected for 48 h without siRNA (mock, M), or with 30 nM of one of three different nucleolin siRNAs (NCL1, NCL2, NCL3) or a control siRNA (scramble, S), or contransfected with 10 nM of each nucleolin siRNAs (mix). (Panel A) Cells were lysed and total cell lyses were analyzed by Western blotting using the antibodies shown. (Panel B) Cell-surface proteins from intact transfected DU145 cells were labeled covalently with membrane-impermeable biotinylating agent. Cells were lysed, then biotinylated plasma membrane proteins were captured with streptavidin-agarose beads and analyzed by blotting with anti-nucleolin antibody (upper panel). After stripping, the membrane was reprobed with antibodies for a plasma membrane marker (anti-pan Cadherin) and a nuclear marker (anti-histone 3) to confirm the fractionation. Total lysate (Lys) was used as control. (Panel C) The medium of transfected cells was replaced by fresh complete DMEM medium containing no oligonucleotide (gray dashed histogram) or 10 μM FL-CRO (gray solid line histogram) or 10 μM FL-AS1411 (black solid line histogram) and incubated at 37° C. for 2 h. After incubation, cells were harvested and analyzed by flow cytometry.
DU145 cells were plated 18 hr before uptake analysis. Cell medium was changed with fresh complete DMEM medium containing different concentrations of FL-AS1411 (black line) or FL-CRO (gray line), and incubated at 37° C. for 2 hrs. After incubation, cells were harvested and analyzed by flow cytometry.
FIG. 9 are graphs showing the effects of inhibitors on various endocytic pathways. DU145 or Hs27 cells were plated 18 hr before uptake analysis. (Panel A) DU145 cells were pre-treated with dynamin inhibitor, […] Dynasore (black histogram) or DMSO (gray histogram) for 30 min at 37° C. After pre-treatment, cells were treated with […] transferrin conjugated with Alexa Fluor 488 for 30 min at 37° C. (Panel B) DU145 and Hs27 cells were pre-treated with 3 mM amiloride (black histogram) or vehicle (serum-free medium, gray histogram) for 1 h at 37° C. After pre-treatment, FL-CRO was added at a concentration of 10 μM and incubated at 37° C. for 2 h. After incubation, cells were harvested and analyzed by FACS. […]

[4] = tested on: Hs27 cells; experiment: as above; format: cell-based, human; details: 5 μM cytochalasin D for 30 min, then 10 μM FL-AS1411 2 h
Procedure: as §1, §2
FIG. 9 are graphs showing the effects of inhibitors on various endocytic pathways. DU145 or Hs27 cells were plated 18 hr before uptake analysis. (Panel A) DU145 cells were pre-treated with dynamin inhibitor, […] Dynasore (black histogram) or DMSO (gray histogram) for 30 min at 37° C. After pre-treatment, cells were treated with […] transferrin conjugated with Alexa Fluor 488 for 30 min at 37° C. (Panel B) DU145 and Hs27 cells were pre-treated with 3 mM amiloride (black histogram) or vehicle (serum-free medium, gray histogram) for 1 h at 37° C. After pre-treatment, FL-CRO was added at a concentration of 10 μM and incubated at 37° C. for 2 h. After incubation, cells were harvested and analyzed by FACS. Gray solid histogram represents unstained cells.
To analyze uptake of the oligodeoxynucleotides or dextran-10K (macropinocytic marker) by flow cytometry, 2×10^5 cells in fresh supplemented culture medium (2.5 ml) were plated into 6-well plates for 18 h. […]

[5] = tested on: DU145; experiment: Stimulation of macropinocytosis (dextran uptake); format: cell-based; details: 10 μM for 24, 48, or 72 h, flow cytometry
Procedure: (Panel A) DU145 cells were treated with 10 μM tAS1411 or 10 μM tCRO or no oligonucleotide in complete DMEM medium at 37° C. for the time indicated. After treatment, cell medium was changed for fresh complete medium containing 0.2 mg/ml dextran-10K labeled with Alexa Fluor 488, and cells were incubated for 30 min at 37° C. After incubation, cells were harvested and analyzed by flow cytometry to determine dextran uptake. (Panel B) The same experiment was performed using Hs27 cells. (Panel C) DU145 cells were treated with 10 μM tAS1411 or 10 μM tCRO or no oligonucleotide in complete DMEM medium at 37° C. for 48 h. After treatment, cell medium was changed for fresh complete medium containing 0.2 mg/ml dextran-10K tagged with Alexa Fluor 488, and cells were incubated for 30 min at 37° C. Then, cells were washed with cold PBS, added PBS containing 5 μg/ml PI and incubated on ice for 5 min. After washing with cold PBS, cells were fixed and the distribution of macropinocytic marker was visualized by confocal microscopy. The nucleus was stained with DAPI (blue). Scale bars, 10 μm. All experiments have been repeated at least three times. Data are mean of three independent samples; bars, SE; *(p<0.05).
FIG. 6 are graphs showing that nucleolin regulates AS1411-induced stimulation of macropinocytosis. DU145 cells were untreated (no transfection) or transfected, without siRNA (mock), or with 30 nM of one of three different nucleolin siRNAs (NCL1, NCL2, NCL3) or a control siRNA (scramble). 48 h after transfection, cells were incubated with 10 μM tAS1411, 10 μM tCRO, or no oligonucleotide in complete DMEM medium at 37° C. for 24 h. (Panel A) After treatment, cell medium was changed for fresh complete medium containing 0.2 mg/ml dextran-10K labeled with Alexa Fluor 488 (green) and incubated for 30 min at 37° C. (Panel B) After treatment, some cells were washed, fresh complete medium containing 10 μM FL-AS1411 added and incubated for 2 h at 37° C. After incubation, cells were harvested and analyzed by flow cytometry. Mean fluorescence was normalized to “not transfected” control (Panel A) or to no pre-treatment control (Panel B). All experiments have been repeated at least three times. Data are the mean of three independent samples; bars, SE; *(p<0.05).
FIG. 11 is a graph showing a comparison between AS1411 and tAS1411 in the ability to stimulate macropinocytosis. DU145 cells were plated 18 hr before treatment with different concentrations (0, 5, 10, or 15 μM) of AS1411, tAS1411 or tCRO in complete DMEM medium at 37° C. for 48 h. After treatment, cell medium was changed for fresh complete medium containing 0.2 mg/ml dextran-10K labeled with Alexa Fluor 488, and cells were incubated for 30 min at 37° C. After incubation, cells were incubated on ice with […] PI in PBS, harvested, fixed and immediately analyzed by flow cytometry.
To analyze uptake of the oligodeoxynucleotides or dextran-10K (macropinocytic marker) by flow cytometry, 2×10^5 cells in fresh supplemented culture medium (2.5 ml) were plated into 6-well plates for 18 h. After complete adhesion, the cells were incubated with 5′-FAM tagged oligodeoxynucleotides or Alexa Fluor 488 tagged dextran-10K and incubated as indicated in the Description of the Drawings. Cells were washed once with ice-cold PBS, incubated with 1 μg/ml 7-amino-actinomycin D (7-AAD) for 5 min on ice or 1 μg/ml propidium iodide (PI), and washed twice with ice-cold PBS. Cells were then treated with 0.01% trypsin/0.5 mM EDTA (300 μl) for 3 min prior addition 3 ml supplemented culture medium. The cells were then centrifuged and resuspended in 0.5 ml of 1% paraformaldehyde for analysis by flow cytometry using a FACScalibur cytometer (BD Biosciences, Mountain View, Calif.).
AS1411 causes a change in cancer cell morphology that is characterized by vacuolization, irregular nuclei, and swollen cells (Xu et al., 2001, J. Biol. Chem., 276:43221-30). […]

| Molecule | effect of pre-incubation on AS1411-induced cell death [1] | further results |
| --- | --- | --- |
| CC[C@H](C)[C@H](NC(=O)OCc1ccccc1)C(=O)N[C@@H](CCC(=O)OC)C(=O)N[C@H](C(=O)N[C@@H](CC(=O)OC)C(=O)CF)[C@@H](C)O [zIETD-fmk] (Cbz-IE(OMe)TD(OMe)-CH2F) | did not inhibit AS1411-induced cell death |  |
| COC(=O)C[C@H](NC(=O)[C@H](C)NC(=O)[C@@H](NC(=O)OCc1ccccc1)C(C)C)C(=O)CF [zVAD-fmk] (Cbz-Val-Ala-Asp(OMe)-CH2F) | did not inhibit AS1411-induced cell death |  |
| Cn1cnc(N)c2ncnc1-2 [3-methyladenine] |  | toxicity of the inhibitor alone [2]: some toxicity by itself; effect on AS1411 activity ([2]; 4 days, 10 μM AS1411): did not inhibit AS1411 activity |
| C=C1[C@@H](C)[C@H]2[C@H](Cc3ccccc3)NC(=O)[C@]23[C@H](OC(C)=O)/C=C/[C@@](C)(O)C(=O)[C@@H](C)C/C=C/[C@H]3[C@@H]1O [Cytocholasin D, Cytochalasin D, reference compound] |  | effect of pre-treatment on FL-AS1411 uptake [3]: decrease in FL-AS1411 uptake; effect of pre-treatment on FL-AS1411 uptake [4]: decrease in FL-AS1411 uptake |
| COC(=O)CC[C@H](NC(=O)[C@H](CC(C)C)NC(=O)OCc1ccccc1)C(=O)N[C@@H](Cc1cnc[nH]1)C(=O)N[C@@H](CC(=O)OC)C(=O)CF [zLEHD-fmk] (Cbz-LE(OMe)HD(OMe)-CH2F) | did not inhibit AS1411-induced cell death |  |
| NC(=O)c1cccc(N)c1 [3-aminobenzamide] | did not inhibit AS1411-induced cell death |  |
| COC(=O)CC[C@H](NC(=O)[C@H](CC(=O)OC)NC(=O)OCc1ccccc1)C(=O)N[C@H](C(=O)N[C@@H](CC(=O)OC)C(=O)CF)C(C)C [zDEVD-fmk] | did not inhibit AS1411-induced cell death |  |
| 5′-d(TTTCCTCCTCCTCCTTCTCCTCCTCCTCC) (DNA TTTCCTCCTCCTCCTTCTCCTCCTCCTCC; unmodified DNA) [tCRO, reference compound] |  | uptake of the macropinocytic marker, dextran, after treatment [5]: No changes in dextran uptake |
